Results: PubChem BioAssay (NCI)
Where “and” joins values, the source holds several entries; their conditions need not be identical. Identical values can stand only once.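 Cultured in 96-well plates, cells were exposed to test compound for 48 hours across five concentrations. GI50 marks 50% less growth. At the TGI there is no net growth.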

How the values were obtained:
Test in all cases: growth of human tumour cells (NCI), 48 h
[1] = tested on: COLO 205 colon
[2] = tested on: HL-60(TB) leukemia
[3] = tested on: OVCAR-8 ovarian
[4] = tested on: HCC-2998 colon
[5] = tested on: SW-620 colon
[6] = tested on: DU-145 prostate
[7] = tested on: SNB-19 CNS
[8] = tested on: HS 578T breast
[9] = tested on: NCI-H23 lung
[10] = tested on: NCI-H460 lung

Structure (SMILES)	TGI [1]	TGI [2]	TGI [3]	TGI [4]	TGI [5]	TGI [6]	TGI [7]	TGI [8]	TGI [9]	TGI [10]	GI50 [1]	GI50 [3]	GI50 [4]	GI50 [5]	GI50 [6]	GI50 [7]	GI50 [8]	GI50 [9]	GI50 [10]	GI50 [2]
NS(=O)(=O)c1nnc(NC(=O)Nc2ccc(Cl)c(Cl)c2)s1	28.2 µM	> 100 µM	49.9 µM	34.8 µM	> 100 µM	> 100 µM	55.8 µM	75.9 µM	39.4 µM	55.3 µM	–	–	–	–	–	–	–	–	–	–
COc1ccc(/C=c2\sc3n(c2=O)CCN=3)cc1	–	> 100 µM	> 100 µM	> 100 µM	> 100 µM	–	–	–	> 100 µM	> 100 µM	–	–	–	–	–	–	–	–	–	–
CC1=C(Cl)C=CP(=O)(Oc2ccccc2)C1 (configuration not stated)	> 100 µM	> 10 µM	60.6 µM	> 100 µM	> 100 µM	–	> 100 µM	–	> 100 µM	> 100 µM	–	–	–	–	–	–	–	–	–	–
COC(=O)[C@@H](O)[C@](O)(CCC(C)C)C(=O)O[C@@H]1C(OC)=C[C@]23CCCN2CCc2cc4c(cc2[C@H]13)OCO4	2.99 µM	2.96 µM	6.51 µM	2.32 µM	9.94 µM	–	2.67 µM	–	5.7 µM	1.7 µM	–	–	–	–	–	–	–	–	–	–
Oc1ccc(-c2nc3ccc(Br)cc3s2)cc1	33.7 µM	56.3 µM	49.3 µM	–	> 100 µM	36.7 µM	85.2 µM	–	76 µM	52.8 µM	–	–	–	–	–	–	–	–	–	–
O=C(N/N=C/c1ccc(Cl)cc1)c1c(Cl)c(Cl)c(Cl)c(Cl)c1-c1nc2ccccc2[nH]1	> 100 µM	> 100 µM	–	> 100 µM	> 100 µM	> 100 µM	> 100 µM	> 100 µM	> 100 µM	> 100 µM	–	–	–	–	–	–	–	–	–	–
Oc1ccccc1CNCc1nc2ccccc2[nH]1	82.7 µM	> 100 µM	> 100 µM	> 100 µM	> 100 µM	> 100 µM	> 100 µM	> 100 µM	> 100 µM	–	–	–	–	–	–	–	–	–	–	–
Cc1ccc(N(Cc2ccccc2)Cc2ccccc2)cc1	> 100 µM	> 100 µM	> 100 µM	–	> 100 µM	> 100 µM	> 100 µM	> 100 µM	> 100 µM	> 100 µM	–	–	–	–	–	–	–	–	–	–
Oc1ccc(Cc2cc(Cc3ccc(O)cc3)cc(Cc3ccc(O)cc3)c2)cc1	–	> 50 µM	> 50 µM	> 50 µM	> 50 µM	> 50 µM	> 50 µM	> 50 µM	–	> 50 µM	–	–	–	–	–	–	–	–	–	–
N[C@@H](CCC(=O)NCP(=O)(O)O)C(=O)O	> 100 µM	> 100 µM	> 100 µM	> 100 µM	> 100 µM	–	> 100 µM	> 100 µM	> 100 µM	> 100 µM	–	–	–	–	–	–	–	–	–	–
O=C(c1ccccn1)C1(N2CCCCC2)CCCCC1	> 100 µM	> 100 µM	> 100 µM	> 100 µM	> 100 µM	> 100 µM	> 100 µM	39.5 µM	> 100 µM	–	–	–	–	–	–	–	–	–	–	–
CC1(C(=O)O)CCC2(C)CCC3(C)C(=CC(=O)C4C5(C)CCC(O)C(C)(C)C5CCC43C)C2C1 (configuration not stated)	> 100 µM	51.3 µM	> 100 µM	87.3 µM	> 100 µM	77.3 µM	> 100 µM	65.7 µM	44.8 µM	–	–	–	–	–	–	–	–	–	–	–
COP(=O)(OC)C1=c2c(C)noc2=C2C=COC2C1=O (configuration not stated)	> 100 µM	> 100 µM	> 100 µM	> 100 µM	> 100 µM	> 100 µM	> 100 µM	> 100 µM	> 100 µM	–	–	–	–	–	–	–	–	–	–	–
COC(=O)C1CC(C=[N+](C)C)=C(SC)N1C(=O)OCc1ccccc1 (configuration not stated)	> 100 µM	–	> 100 µM	> 100 µM	> 100 µM	> 100 µM	> 100 µM	> 100 µM	> 100 µM	> 100 µM	–	–	–	–	–	–	–	–	–	–
N#CC(Cc1ccccc1)N(CCC1=CCCCC1)C(c1ccccc1)c1ccccc1 (configuration not stated)	> 100 µM	–	> 100 µM	> 100 µM	> 100 µM	> 100 µM	> 100 µM	> 100 µM	> 100 µM	> 100 µM	–	–	–	–	–	–	–	–	–	–
COc1ccc(CN2C(=O)/C(=C\c3cc(OC)c(OC)c(OC)c3)c3ccccc32)cc1	3.44 µM	–	> 100 µM	3.31 µM	4.85 µM	6.98 µM	3.56 µM	55.5 µM	6.43 µM	4.09 µM	1.89 µM	3.05 µM	1.78 µM	2.15 µM	2.32 µM	1.81 µM	3.78 µM	2.35 µM	2.08 µM	–
CC(=O)N1C(C(=O)NC2CCCCC2)CSC1c1ccccc1 (configuration not stated)	–	> 100 µM	> 100 µM	> 100 µM	> 100 µM	> 100 µM	> 100 µM	> 100 µM	> 100 µM	> 100 µM	–	–	–	–	–	–	–	–	–	–
CCCCCCCC/C=C\CCCCCCCCCCCC(=O)O	40.4 µM	34.6 µM	> 109 µM	> 85.8 µM	90.1 µM	–	> 64.5 µM	–	80.8 µM	34.9 µM	–	–	–	–	–	–	–	–	–	–
COc1cccc(Nc2nc(-c3cccs3)nc3cc(OC)c(OC)cc23)c1	62.3 µM	> 100 µM	78.5 µM	–	52.4 µM	> 100 µM	> 100 µM	75.3 µM	89.7 µM	79.4 µM	–	–	–	–	–	–	–	–	–	–
O=C(OCc1ccccc1)N1CCNCCN(C(=O)OCc2ccccc2)CCNCC1	–	93.4 µM	> 100 µM	–	> 100 µM	> 100 µM	> 100 µM	54.5 µM	–	49.4 µM	–	–	–	–	–	–	–	–	–	–
Nc1nc(SCCC/C=C/I)nc2c1ncn2C1OC(COP(=O)(O)O)C(O)C1O (configuration not stated)	> 100 µM	> 100 µM	> 100 µM	> 100 µM	> 100 µM	–	> 100 µM	–	> 100 µM	> 100 µM	–	–	–	–	–	–	–	–	–	–
O=C1C=C[C@@H](COC2OC(CO)C(O)C(O)C2O)O1 (some centres not stated)	14.4 µM and 19.5 µM	15.4 µM and 5.22 µM	> 100 µM and 66.5 µM	> 100 µM	16.1 µM and 15.8 µM	–	53.2 µM	–	19.2 µM and 29.7 µM	14.8 µM and 32.3 µM	3.44 µM	4.61 µM	–	–	–	20.6 µM	–	5.12 µM	3.68 µM	2.75 µM
